{"source": "ChEMBL document CHEMBL1201862", "about": "“PubChem BioAssay data set” (2004)", "experiment_in_all_cases": "inhibition of tumour cell growth, NCI panel, 48 h", "key": {"[1]": {"system": "786-0"}, "[2]": {"system": "A549"}, "[3]": {"system": "ACHN"}, "[4]": {"system": "CAKI-1"}, "[5]": {"system": "CCRF-CEM"}, "[6]": {"system": "COLO 205"}, "[7]": {"system": "DLD-1"}, "[8]": {"system": "DMS-114"}, "[9]": {"system": "DMS-273"}, "[10]": {"system": "HCT-116"}, "[11]": {"system": "HCT-15"}, "[12]": {"system": "HL-60"}, "[13]": {"system": "HOP-18"}, "[14]": {"system": "HOP-62"}, "[15]": {"system": "HOP-92"}, "[16]": {"system": "HT-29"}, "[17]": {"system": "IGROV-1"}, "[18]": {"system": "K562"}, "[19]": {"system": "KM-20L2"}, "[20]": {"system": "KM12"}, "[21]": {"system": "LOX IMVI"}, "[22]": {"system": "LXFL 529"}, "[23]": {"system": "M14"}, "[24]": {"system": "M19-MEL"}, "[25]": {"system": "MOLT-4"}, "[26]": {"system": "Malme-3M"}, "[27]": {"system": "NCI-H226"}, "[28]": {"system": "NCI-H23"}, "[29]": {"system": "NCI-H460"}, "[30]": {"system": "NCI-H522"}, "[31]": {"system": "OVCAR-3"}, "[32]": {"system": "OVCAR-4"}, "[33]": {"system": "OVCAR-5"}, "[34]": {"system": "OVCAR-8"}, "[35]": {"system": "RPMI-8226"}, "[36]": {"system": "RXF 393"}, "[37]": {"system": "SF-268"}, "[38]": {"system": "SF-295"}, "[39]": {"system": "SF-539"}, "[40]": {"system": "SK-MEL-28"}, "[41]": {"system": "SK-MEL-2"}, "[42]": {"system": "SK-MEL-5"}, "[43]": {"system": "SK-OV-3"}, "[44]": {"system": "SN12C"}, "[45]": {"system": "SNB-75"}, "[46]": {"system": "SNB-78"}, "[47]": {"system": "SR"}, "[48]": {"system": "SW-620"}, "[49]": {"system": "TK-10"}, "[50]": {"system": "U-251"}, "[51]": {"system": "UACC-257"}, "[52]": {"system": "UACC-62"}, "[53]": {"system": "UO-31"}, "[54]": {"system": "A498"}, "[55]": {"system": "EKVX"}, "[56]": {"system": "SNB-19"}}, "note": "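Growth conditions: 96-well plates. Treatment: test compound, 48 hours, 5 concentrations. Analysis: linear interpolation between bracketing concentrations; unreached endpoints set to highest concentration. Here, GI50 denotes the concentration required for 50% inhibition of growth.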 Calls of active or inactive are those of the source. Cut-off read from the data, not from the text of the source: active = GI50 up to about 1.1 µM and inactive = higher.", "data": [{"smiles": "CC(=O)OC(CCC1(C)OC1COc1ccc(CCNC(=O)c2ccccc2)cc1)C(C)(C)OC(C)=O", "note": "(stereo not given)", "values": [{"measurement": "GI50", "setting": "[1]", "result": "> 100 µM (inactive)"}, {"measurement": "GI50", "setting": "[2]", "result": "13.1 µM (inactive)"}, {"measurement": "GI50", "setting": "[3]", "result": "5 µM (inactive)"}, {"measurement": "GI50", "setting": "[4]", "result": "19 µM (inactive)"}, {"measurement": "GI50", "setting": "[5]", "result": "7.18 µM (inactive)"}, {"measurement": "GI50", "setting": "[6]", "result": "19.5 µM (inactive)"}, {"measurement": "GI50", "setting": "[7]", "result": "45 µM (inactive)"}, {"measurement": "GI50", "setting": "[8]", "result": "0.325 µM (active)"}, {"measurement": "GI50", "setting": "[9]", "result": "11 µM (inactive)"}, {"measurement": "GI50", "setting": "[10]", "result": "0.794 µM (active)"}, {"measurement": "GI50", "setting": "[11]", "result": 13.9, "unit": "µM"}, {"measurement": "GI50", "setting": "[12]", "result": "25.7 µM (inactive)"}, {"measurement": "GI50", "setting": "[13]", "result": "> 100 µM (inactive)"}, {"measurement": "GI50", "setting": "[14]", "result": "15.5 µM (inactive)"}, {"measurement": "GI50", "setting": "[15]", "result": "74.6 µM (inactive)"}, {"measurement": "GI50", "setting": "[16]", "result": "17.4 µM (inactive)"}, {"measurement": "GI50", "setting": "[17]", "result": "39.5 µM (inactive)"}, {"measurement": "GI50", "setting": "[18]", "result": "0.752 µM (active)"}, {"measurement": "GI50", "setting": "[19]", "result": "30.1 µM (inactive)"}, {"measurement": "GI50", "setting": "[20]", "result": "15.6 µM (inactive)"}, {"measurement": "GI50", "setting": "[21]", "result": "2.18 µM (inactive)"}, {"measurement": "GI50", "setting": "[22]", "result": "10.3 µM (inactive)"}, {"measurement": "GI50", "setting": "[23]", "result": "15.1 µM (inactive)"}, {"measurement": "GI50", "setting": "[24]", "result": "18.4 µM (inactive)"}, {"measurement": "GI50", "setting": "[25]", "result": "4.19 µM (inactive)"}, {"measurement": "GI50", "setting": "[26]", "result": "15.3 µM (inactive)"}, {"measurement": "GI50", "setting": "[27]", "result": "> 100 µM (inactive)"}, {"measurement": "GI50", "setting": "[28]", "result": "0.302 µM (active)"}, {"measurement": "GI50", "setting": "[29]", "result": "13.1 µM (inactive)"}, {"measurement": "GI50", "setting": "[30]", "result": "22.9 µM (inactive)"}, {"measurement": "GI50", "setting": "[31]", "result": "10.3 µM (inactive)"}, {"measurement": "GI50", "setting": "[32]", "result": "19.7 µM (inactive)"}, {"measurement": "GI50", "setting": "[33]", "result": "> 100 µM (inactive)"}, {"measurement": "GI50", "setting": "[34]", "result": "15.7 µM (inactive)"}, {"measurement": "GI50", "setting": "[35]", "result": "18.6 µM (inactive)"}, {"measurement": "GI50", "setting": "[36]", "result": "16.2 µM (inactive)"}, {"measurement": "GI50", "setting": "[37]", "result": "74.8 µM (inactive)"}, {"measurement": "GI50", "setting": "[38]", "result": "11.4 µM (inactive)"}, {"measurement": "GI50", "setting": "[39]", "result": "> 100 µM (inactive)"}, {"measurement": "GI50", "setting": "[40]", "result": "22 µM (inactive)"}, {"measurement": "GI50", "setting": "[41]", "result": "17.3 µM (inactive)"}, {"measurement": "GI50", "setting": "[42]", "result": "1.1 µM (active)"}, {"measurement": "GI50", "setting": "[43]", "result": "> 100 µM (inactive)"}, {"measurement": "GI50", "setting": "[44]", "result": "> 100 µM (inactive)"}, {"measurement": "GI50", "setting": "[45]", "result": "32.6 µM (inactive)"}, {"measurement": "GI50", "setting": "[46]", "result": "36.2 µM (inactive)"}, {"measurement": "GI50", "setting": "[47]", "result": "0.493 µM (active)"}, {"measurement": "GI50", "setting": "[48]", "result": "> 100 µM (inactive)"}, {"measurement": "GI50", "setting": "[49]", "result": "49.3 µM (inactive)"}, {"measurement": "GI50", "setting": "[50]", "result": "37.3 µM (inactive)"}, {"measurement": "GI50", "setting": "[51]", "result": "2.13 µM (inactive)"}, {"measurement": "GI50", "setting": "[52]", "result": "14.3 µM (inactive)"}, {"measurement": "GI50", "setting": "[53]", "result": "29.4 µM (inactive)"}]}, {"smiles": "NC(CCCNc1cccc(O)c1)C(=O)O", "note": "(stereo not given)", "values": [{"measurement": "GI50", "setting": "[1]", "result": "> 100 µM (inactive)"}, {"measurement": "GI50", "setting": "[54]", "result": "> 100 µM (inactive)"}, {"measurement": "GI50", "setting": "[2]", "result": "> 100 µM (inactive)"}, {"measurement": "GI50", "setting": "[3]", "result": "> 100 µM (inactive)"}, {"measurement": "GI50", "setting": "[4]", "result": "> 100 µM (inactive)"}, {"measurement": "GI50", "setting": "[5]", "result": "> 100 µM (inactive)"}, {"measurement": "GI50", "setting": "[6]", "result": "> 100 µM (inactive)"}, {"measurement": "GI50", "setting": "[7]", "result": "> 100 µM (inactive)"}, {"measurement": "GI50", "setting": "[8]", "result": "> 100 µM (inactive)"}, {"measurement": "GI50", "setting": "[9]", "result": "> 100 µM (inactive)"}, {"measurement": "GI50", "setting": "[55]", "result": "> 100 µM (inactive)"}, {"measurement": "GI50", "setting": "[10]", "result": "> 100 µM (inactive)"}, {"measurement": "GI50", "setting": "[11]", "result": "> 100", "unit": "µM"}, {"measurement": "GI50", "setting": "[12]", "result": "> 100 µM (inactive)"}, {"measurement": "GI50", "setting": "[13]", "result": "> 100 µM (inactive)"}, {"measurement": "GI50", "setting": "[14]", "result": "> 100 µM (inactive)"}, {"measurement": "GI50", "setting": "[15]", "result": "> 100 µM (inactive)"}, {"measurement": "GI50", "setting": "[16]", "result": "> 100 µM (inactive)"}, {"measurement": "GI50", "setting": "[18]", "result": "> 100 µM (inactive)"}, {"measurement": "GI50", "setting": "[19]", "result": "> 100 µM (inactive)"}, {"measurement": "GI50", "setting": "[21]", "result": "> 100 µM (inactive)"}, {"measurement": "GI50", "setting": "[22]", "result": "> 100 µM (inactive)"}, {"measurement": "GI50", "setting": "[23]", "result": "> 100 µM (inactive)"}, {"measurement": "GI50", "setting": "[24]", "result": "> 100 µM (inactive)"}, {"measurement": "GI50", "setting": "[25]", "result": "> 100 µM (inactive)"}, {"measurement": "GI50", "setting": "[26]", "result": "> 100 µM (inactive)"}, {"measurement": "GI50", "setting": "[27]", "result": "> 100 µM (inactive)"}, {"measurement": "GI50", "setting": "[29]", "result": "> 100 µM (inactive)"}, {"measurement": "GI50", "setting": "[30]", "result": "> 100 µM (inactive)"}, {"measurement": "GI50", "setting": "[31]", "result": "> 100 µM (inactive)"}, {"measurement": "GI50", "setting": "[32]", "result": "> 100 µM (inactive)"}, {"measurement": "GI50", "setting": "[33]", "result": "> 100 µM (inactive)"}, {"measurement": "GI50", "setting": "[34]", "result": "> 100 µM (inactive)"}, {"measurement": "GI50", "setting": "[35]", "result": "> 100 µM (inactive)"}, {"measurement": "GI50", "setting": "[36]", "result": "> 100 µM (inactive)"}, {"measurement": "GI50", "setting": "[37]", "result": "> 100 µM (inactive)"}, {"measurement": "GI50", "setting": "[38]", "result": "> 100 µM (inactive)"}, {"measurement": "GI50", "setting": "[40]", "result": "> 100 µM (inactive)"}, {"measurement": "GI50", "setting": "[41]", "result": "> 100 µM (inactive)"}, {"measurement": "GI50", "setting": "[42]", "result": "> 100 µM (inactive)"}, {"measurement": "GI50", "setting": "[43]", "result": "> 100 µM (inactive)"}, {"measurement": "GI50", "setting": "[44]", "result": "> 100 µM (inactive)"}, {"measurement": "GI50", "setting": "[56]", "result": "> 100 µM (inactive)"}, {"measurement": "GI50", "setting": "[45]", "result": "> 100 µM (inactive)"}, {"measurement": "GI50", "setting": "[46]", "result": "> 100 µM (inactive)"}, {"measurement": "GI50", "setting": "[47]", "result": "> 100 µM (inactive)"}, {"measurement": "GI50", "setting": "[48]", "result": "> 100 µM (inactive)"}, {"measurement": "GI50", "setting": "[49]", "result": "> 100 µM (inactive)"}, {"measurement": "GI50", "setting": "[50]", "result": "> 100 µM (inactive)"}, {"measurement": "GI50", "setting": "[51]", "result": "> 100 µM (inactive)"}, {"measurement": "GI50", "setting": "[52]", "result": "> 100 µM (inactive)"}, {"measurement": "GI50", "setting": "[53]", "result": "> 100 µM (inactive)"}]}]}
